# Patent US20150175681A1 (priority 2010, published 2015)
# Assays:
# Type in all cases: in vivo
# [1] = system: C. difficile (ATCC 43596 strain); settings: Example 5B
# [2] = system: C. difficile (ATCC 43596); settings: Example 5C
# [3] = system: C. difficile (ATCC 43596, strain 545)
# [4] = Example 5E, vancomycin 20 mg/kg
# [5] = Example 5E, vancomycin 20 mg/kg BID × 5 days
smiles,measurement,setting,value
CN[C@H](CC(C)C)C(=O)N[C@H]1C(=O)N[C@@H](CC(N)=O)C(=O)N[C@H]2C(=O)N[C@H]3C(=O)N[C@H](C(=O)N[C@H](C(=O)O)c4cc(O)cc(O)c4-c4cc3ccc4O)[C@H](O)c3ccc(c(Cl)c3)Oc3cc2cc(c3O[C@@H]2O[C@H](CO)[C@@H](O)[C@H](O)[C@H]2O[C@H]2C[C@](C)(N)[C@H](O)[C@H](C)O2)Oc2ccc(cc2Cl)[C@H]1O [Vancomycin],% mortality,"[1]; 37 days, vancomycin 20 mg/kg PO BID × 5 days, goat polyclonal Abs 1 mL/hamster, PA-38 + PA-41 50, 50 mg/kg, PA-39 + PA-41 50, 40 mg/kg IP Q2d × 4",88%
same,"number of hamster deaths, day of study 15","[1]; doses as Table 2, 8 animals",1
same,"number of hamster deaths, day of study 18","[1]; doses as Table 2, 8 animals",5
same,"number of hamster deaths, day of study 19","[1]; doses as Table 2, 8 animals",1
same,mean body weights,[1]; first week after infection,declined significantly during the first week after infection
same,hamsters found dead between Days 15 and 19,[1]; vancomycin 20 mg/kg BID Days 1-5,seven of eight
same,% mortality,"[2]; 40 days, vancomycin 20 mg/kg PO BID × 5 days, mAbs 50 mg/kg (combination 50, 50) IP Q2d × 4, 7 hamsters",100%
same,"number of hamster deaths, day of study 12",[2]; doses as Table 4,1
same,"number of hamster deaths, day of study 14",[2]; doses as Table 4,2
same,"number of hamster deaths, day of study 15",[2]; doses as Table 4,1
same,"number of hamster deaths, day of study 18",[2]; doses as Table 4,1
same,"number of hamster deaths, day of study 19",[2]; doses as Table 4,2
same,mean body weights over the study,"[3]; Example 5E, to day 39",decreased during the first week post-infection and then rebounded
same,Day 40 Survival,[3]; [4],0%
same,Median Survival,[3]; [4],20 days
same,% mortality,[3]; [5],100%
same,"number of hamster deaths, day of study 11 to 14",[3]; [5],1
same,"number of hamster deaths, day of study 18 to 20",[3]; [5],5
same,"number of hamster deaths, day of study 22",[3]; [5],2
same,"cecal C. difficile, mean CFU",[3]; in vivo,6.01±0.93 log10
